Source: US10195185B2, “3-(1H-imidazo[4,5-C]pyridin-2-yl)-1H-pyrazolo[4,3-B]pyridines and therapeutic uses thereof” (Samumed, LLC, priority 2015, dated 2019)

How the values were obtained:
Assay type in all cases: cell-based
[1] = test system: Primary human fibroblasts derived from IPF patients (LL29 cells) treated with TGF-β1; experiment: Inhibition of the fibrotic process: αSMA staining in TGF-β1 treated fibroblasts; details: Fibroblast, 96 h, LL29 fibroblasts treated with TGF-β1, 4 days; for inhibition at 10 µM: read-out: percent inhibition in brackets beside EC50 >10 μM
Procedure, shortened: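 Read-out: fraction of αSMA-positive cells by high-content imaging, SYTOX-stained dead cells excluded, normalized to TGF-β1/DMSO wells. Cells got compound (10 μM–[…], 11 points) plus TGF-β1 20 ng/mL for 4 days. EC50 from triplicate curves; above 10 μM, % inhibition at 10 μM given.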

[2] = test system: Wnt activity (Wnt-responsive human Sp5 promoter, TCF/LEF binding sites) in SW480 colon carcinoma cells; experiment: Wnt activity screening assay: Sp5-Luc luciferase reporter gene in SW480 cells; details: for EC50: 10-point dose-response from 10 μM, incubated overnight; for inhibition at 10 µM: given for EC50 of >10 μM, read-out: percent inhibition at 10 μM
Procedure, shortened: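 Luminescence (BrightGlo) was normalised to DMSO-only wells and fitted with a four-parameter variable-slope model for EC50; beyond 10 μM, % inhibition at 10 μM is given. Stable Sp5-Luc SW480 reporter cells, 4,000/well in 1% FBS, were exposed overnight at 37 °C to compounds, top 10 μM, 1:3 dilutions, 0.1% DMSO.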

SW480 colon cancer cells = experiment: Cell viability assay (CellTiter-Blue), four days; details: Homo sapiens, 96 h; for EC50: CellTiter-Blue cell viability; for inhibition at 10 µM: read-out: percent inhibition at 10 μM (given for EC50 of >10 μM)
Procedure, shortened: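 4-day exposure, 37 °C/5% CO2; ~2×10^3 SW480 cells/well; 8-pt 1:3 curve, 10–0.0045 μM, duplicates vs DMSO controls. Resazurin→resorufin fluorescence readout, ~3 h. EC50 by nonlinear fit; if >10 μM, % inhibition at 10 μM reported.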

| EC50 [2] [µM] | EC50 (SW480 colon cancer cells) [µM] | SMILES | EC50 [1] [nM] | inhibition at 10 µM [2] [%] | inhibition at 10 µM (SW480 colon cancer cells) [%] | inhibition at 10 µM [1] [%] |
| --- | --- | --- | --- | --- | --- | --- |
| 8.65 | 6.25 | CN(C)CCNc1cc(F)cc(-c2nccc3[nH]c(-c4n[nH]c5ccc(-c6ccccn6)nc45)nc23)c1 [Compound 476, N^1-(3-Fluoro-5-(2-(5-(pyridin-2-yl)-1H-pyrazolo[4,3-b]pyridin-3-yl)-1H-imidazo[4,5-c]pyridin-4-yl)phenyl)-N^2,N^2-dimethylethane-1,2-diamine] | 1720 | – | – | – |
| > 10 | > 10 | Fc1cccc(-c2nccc3[nH]c(-c4n[nH]c5ccc(C6CCNCC6)nc45)nc23)c1 [Compound 505, 3-(4-(3-Fluorophenyl)-1H-imidazo[4,5-c]pyridin-2-yl)-5-(piperidin-4-yl)-1H-pyrazolo[4,3-b]pyridine] | 3800 | 11.9 | 0.4 | – |
| > 10 | > 10 | O=C(Nc1cncc(-c2ccc3[nH]nc(-c4nc5c(-c6cccc(F)c6)nccc5[nH]4)c3n2)c1)C1CC1 [Compound 20, N-(5-(3-(4-(3-Fluorophenyl)-1H-imidazo[4,5-c]pyridin-2-yl)-1H-pyrazolo [4,3-b]pyridin-5-yl)pyridin-3-yl)cyclopropanecarboxamide] | > 10000 | 14.7 | 6 | 14.1 |
| 3.25 | > 10 | c1cncc(-c2nccc3[nH]c(-c4n[nH]c5ccc(-c6cncc(OC7CCCCC7)c6)nc45)nc23)c1 [Compound 559, 5-(5-(Cyclohexyloxy)pyridin-3-yl)-3-(4-(pyridin-3-yl)-1H-imidazo[4,5-c]pyridin-2-yl)-1H-pyrazolo[4,3-b]pyridine] | 2730 | – | 18 | – |
| > 10 | > 10 | Cc1cn(-c2nccc3[nH]c(-c4n[nH]c5ccc(-c6cncc(OCCN(C)C)c6)nc45)nc23)cn1 [Compound 627, N,N-Dimethyl-2-((5-(3-(4-(4-methyl-1H-imidazol-1-yl)-1H-imidazo[4,5-c]pyridin-2-yl)-1H-pyrazolo[4,3-b]pyridin-5-yl)pyridin-3-yl)oxy)ethan-1-amine] | 4370 | 11.8 | 8.2 | – |
| > 10 | > 10 | Cc1ccc(-c2nccc3[nH]c(-c4n[nH]c5ccc(-c6cncc(NC(=O)C7CCCC7)c6)nc45)nc23)s1 [Compound 414, N-(5-(3-(4-(5-Methylthiophen-2-yl)-1H-imidazo[4,5-c]pyridin-2-yl)-1H-pyrazolo[4,3-b]pyridin-5-yl)pyridin-3-yl)cyclopentanecarboxamide] | > 10000 | 23.8 | 0.4 | 46.2 |
| 1.28 | 0.322 | COc1cncc(-c2ccc3[nH]nc(-c4nc5c(-c6cccc(F)c6)nccc5[nH]4)c3n2)c1 [Compound 516, 3-(4-(3-Fluorophenyl)-1H-imidazo[4,5-c]pyridin-2-yl)-5-(5-methoxypyridin-3-yl)-1H-pyrazolo[4,3-b]pyridine] | 93 | – | – | – |
| 2.45 | 3.43 | Fc1cccc(-c2nccc3[nH]c(-c4n[nH]c5ccc(-c6cncc(OCCN7CCCC7)c6)nc45)nc23)c1 [Compound 514, 3-(4-(3-Fluorophenyl)-1H-imidazo[4,5-c]pyridin-2-yl)-5-(5-(2-(pyrrolidin-1-yl)ethoxy)pyridin-3-yl)-1H-pyrazolo[4,3-b]pyridine] | 1790 | – | – | – |
| 1.03 | 0.585 | CC(C)Nc1cncc(-c2ccc3[nH]nc(-c4nc5c(-c6cc(F)cc(NCCN(C)C)c6)nccc5[nH]4)c3n2)c1 [Compound 460, N^1-(3-Fluoro-5-(2-(5-(5-(isopropylamino)pyridin-3-yl)-1H-pyrazolo[4,3-b]pyridin-3-yl)-1H-imidazo[4,5-c]pyridin-4-yl)phenyl)-N^2,N^2-dimethylethane-1,2-diamine] | 732 | – | – | – |
| 0.456 | > 10 | Oc1cncc(-c2ccc3[nH]nc(-c4nc5c(-c6cccnc6)nccc5[nH]4)c3n2)c1 [Compound 565, 5-(3-(4-(Pyridin-3-yl)-1H-imidazo[4,5-c]pyridin-2-yl)-1H-pyrazolo[4,3-b]pyridin-5-yl)pyridin-3-ol] | 797 | – | 32.7 | – |
| > 10 | > 10 | O=C(Nc1cncc(-c2ccc3[nH]nc(-c4nc5c(-c6cccs6)nccc5[nH]4)c3n2)c1)C1CC1 [Compound 356, N-(5-(3-(4-(Thiophen-2-yl)-1H-imidazo[4,5-c]pyridin-2-yl)-1H-pyrazolo [4,3-b]pyridin-5-yl)pyridin-3-yl)cyclopropanecarboxamide] | 5590 | 4.1 | 1.5 | – |
| > 10 | > 10 | O=C(CC1CCNCC1)Nc1cncc(-c2ccc3[nH]nc(-c4nc5c(-c6ccccn6)nccc5[nH]4)c3n2)c1 [Compound 593, 2-(Piperidin-4-yl)-N-(5-(3-(4-(pyri-2-yl)-1H-imidazo[4,5-c]pyridin-2-yl)-1H-pyrazolo[4,3-b]pyridin-5-yl)pyridin-3-yl)acetamide] | 1570 | 31.4 | 9.1 | – |
| 0.115 | 2.2 | Cn1cc(-c2ccc3[nH]nc(-c4nc5c(-c6cccc(F)c6)nccc5[nH]4)c3n2)cn1 [Compound 508, 3-(4-(3-Fluorophenyl)-1H-imidazo[4,5-c]pyridin-2-yl)-5-(1-methyl-1H-pyrazol-4-yl)-1H-pyrazolo[4,3-b]pyridine] | 106 | – | – | – |
| > 10 | 9.87 | c1cc2[nH]c(-c3n[nH]c4ccc(-c5cncc(OCCN6CCCC6)c5)nc34)nc2c(N2CCCCC2)n1 [Compound 610, 3-(4-(Piperidin-1-yl)-1H-imidazo[4,5-c]pyridin-2-yl)-5-(5-(2-(pyrrolidin-1-yl)ethoxy)pyridin-3-yl)-1H-pyrazolo[4,3-b]pyridine] | > 10000 | 46.2 | – | 0 |
| 9.95 | 6.6 | CCNCc1cncc(-c2ccc3[nH]nc(-c4nc5c(-c6cc(F)cc(NCCN(C)C)c6)nccc5[nH]4)c3n2)c1 [Compound 454, N^1-(3-(2-(5-(5-((Ethylamino)methyl)pyridin-3-yl)-1H-pyrazolo[4,3-b]pyridin-3-yl)-1H-imidazo[4,5-c]pyridin-4-yl)-5-fluorophenyl)-N^2,N^2-dimethylethane-1,2-diamine] | 3680 | – | – | – |
| > 10 | > 10 | Fc1cccc(-c2nccc3[nH]c(-c4n[nH]c5ccc(-c6cn[nH]c6)nc45)nc23)c1 [Compound 507, 3-(4-(3-Fluorophenyl)-1H-imidazo[4,5-c]pyridin-2-yl)-5-(1H-pyrazol-4-yl)-1H-pyrazolo[4,3-b]pyridine] | > 10000 | 15 | – | 9.9 |
| 8.02 | 1.27 | CN(C)Cc1cncc(-c2ccc3[nH]nc(-c4nc5c(-c6cccs6)nccc5[nH]4)c3n2)c1 [Compound 349, N,N-dimethyl-1-(5-(3-(4-(thiophen-2-yl)-1H-imidazo[4,5-c]pyridin-2-yl)-1H-pyrazolo[4,3-b]pyridin-5-yl)pyridin-3-yl)methanamine] | 2630 | – | – | – |
| > 10 | > 10 | CCCCC(=O)Nc1cncc(-c2ccc3[nH]nc(-c4nc5c(-c6cc(F)cc(NCCN(C)C)c6)nccc5[nH]4)c3n2)c1 [Compound 467, N-(5-(3-(4-(3-((2-(Dimethylamino)ethyl)amino)-5-fluorophenyl)-1H-imidazo[4,5-c]pyridin-2-yl)-1H-pyrazolo[4,3-b]pyridin-5-yl)pyridin-3-yl)pentanamide] | 1190 | 0 | 0 | – |
| 0.05 | 0.156 | Cc1ccc(-c2nccc3[nH]c(-c4n[nH]c5ccc(-c6cncc(N)c6)nc45)nc23)s1 [Compound 395, 5-(3-(4-(5-Methylthiophen-2-yl)-1H-imidazo[4,5-c]pyridin-2-yl)-1H-pyrazolo[4,3-b]pyridin-5-yl)pyridin-3-amine] | 5070 | – | – | – |
| 3.48 | 1.61 | CN(C)CCOc1cncc(-c2ccc3[nH]nc(-c4nc5c(-c6cccc(F)c6)nccc5[nH]4)c3n2)c1 [Compound 515, 2-((5-(3-(4-(3-Fluorophenyl)-1H-imidazo[4,5-c]pyridin-2-yl)-1H-pyrazolo [4,3-b]pyridin-5-yl)pyridin-3-yl)oxy)-N,N-dimethylethan-1-amine] | 865 | – | – | – |
| 8.63 | 2.7 | CC(C)CC(=O)Nc1cncc(-c2ccc3[nH]nc(-c4nc5c(-c6cccc(F)c6)nccc5[nH]4)c3n2)c1 [Compound 2, N-(5-(3-(4-(3-Fluorophenyl)-1H-imidazo[4,5-c]pyridin-2-yl)-1H-pyrazolo [4,3-b]pyridin-5-yl)pyridin-3-yl)-3-methylbutanamide] | > 10000 | – | – | 25.1 |
